Values of other authors as cited in patent publication US20060111442A1, “Use of methyl pyruvate to increase cellular energy production downstream of glycolysis for the PARP-1 ablation of HIV without necrotic cell death caused by continuous, chronic PARP-1 activation through the concomitant depletion of ATP and NAD” (priority 2004, published 2006).
Where two headings read alike, the source gives them in different places.

Columns and labels:
[1] = test system: primary astrocyte cultures; settings: for MPT and cell death: after PARP-1 activation, cyclosporin A sub-micromolar
[2] = test system: Mouse neuron and astrocyte cultures; settings: for Cell death: hydrogen peroxide, NMDA or MNNG exposure; for NAD(+) depletion resulting from PARP1 activation: MNNG or H(2)O(2); for poly(ADP-ribose) accumulation: during MNNG exposure, immunostaining
[3] = 30 mg/kg i.p. 30 min prior to rosiglitazone
[4] = test system: human non-small cell lung carcinoma cell lines (H1838 and H2106)
[5] = not given; remark: listed apart in the source
[6] = test system: isolated beta-cell mitochondria; settings: with glutamate, vs pyruvate/glutamate
K(ATP) channels = molecular target: T1, K(ATP) channels (Homo sapiens, UniProt Q09428+Q14654); settings: standard whole-cell configuration
T1 construct: endogenous in cells; host or cells: pancreatic beta-cells
T1 sequence (Q14654 whole entry): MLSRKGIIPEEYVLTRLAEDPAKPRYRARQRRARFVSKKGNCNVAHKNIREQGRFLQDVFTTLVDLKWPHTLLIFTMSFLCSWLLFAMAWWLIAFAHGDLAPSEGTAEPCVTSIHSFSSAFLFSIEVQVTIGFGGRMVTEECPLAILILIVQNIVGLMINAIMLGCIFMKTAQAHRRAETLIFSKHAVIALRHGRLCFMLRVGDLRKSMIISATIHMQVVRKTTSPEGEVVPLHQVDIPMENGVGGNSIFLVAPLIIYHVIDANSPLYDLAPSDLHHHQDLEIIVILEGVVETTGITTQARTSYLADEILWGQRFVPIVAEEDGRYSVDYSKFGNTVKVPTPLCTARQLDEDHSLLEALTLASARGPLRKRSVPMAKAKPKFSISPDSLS
T1 sequence (Q09428 whole entry): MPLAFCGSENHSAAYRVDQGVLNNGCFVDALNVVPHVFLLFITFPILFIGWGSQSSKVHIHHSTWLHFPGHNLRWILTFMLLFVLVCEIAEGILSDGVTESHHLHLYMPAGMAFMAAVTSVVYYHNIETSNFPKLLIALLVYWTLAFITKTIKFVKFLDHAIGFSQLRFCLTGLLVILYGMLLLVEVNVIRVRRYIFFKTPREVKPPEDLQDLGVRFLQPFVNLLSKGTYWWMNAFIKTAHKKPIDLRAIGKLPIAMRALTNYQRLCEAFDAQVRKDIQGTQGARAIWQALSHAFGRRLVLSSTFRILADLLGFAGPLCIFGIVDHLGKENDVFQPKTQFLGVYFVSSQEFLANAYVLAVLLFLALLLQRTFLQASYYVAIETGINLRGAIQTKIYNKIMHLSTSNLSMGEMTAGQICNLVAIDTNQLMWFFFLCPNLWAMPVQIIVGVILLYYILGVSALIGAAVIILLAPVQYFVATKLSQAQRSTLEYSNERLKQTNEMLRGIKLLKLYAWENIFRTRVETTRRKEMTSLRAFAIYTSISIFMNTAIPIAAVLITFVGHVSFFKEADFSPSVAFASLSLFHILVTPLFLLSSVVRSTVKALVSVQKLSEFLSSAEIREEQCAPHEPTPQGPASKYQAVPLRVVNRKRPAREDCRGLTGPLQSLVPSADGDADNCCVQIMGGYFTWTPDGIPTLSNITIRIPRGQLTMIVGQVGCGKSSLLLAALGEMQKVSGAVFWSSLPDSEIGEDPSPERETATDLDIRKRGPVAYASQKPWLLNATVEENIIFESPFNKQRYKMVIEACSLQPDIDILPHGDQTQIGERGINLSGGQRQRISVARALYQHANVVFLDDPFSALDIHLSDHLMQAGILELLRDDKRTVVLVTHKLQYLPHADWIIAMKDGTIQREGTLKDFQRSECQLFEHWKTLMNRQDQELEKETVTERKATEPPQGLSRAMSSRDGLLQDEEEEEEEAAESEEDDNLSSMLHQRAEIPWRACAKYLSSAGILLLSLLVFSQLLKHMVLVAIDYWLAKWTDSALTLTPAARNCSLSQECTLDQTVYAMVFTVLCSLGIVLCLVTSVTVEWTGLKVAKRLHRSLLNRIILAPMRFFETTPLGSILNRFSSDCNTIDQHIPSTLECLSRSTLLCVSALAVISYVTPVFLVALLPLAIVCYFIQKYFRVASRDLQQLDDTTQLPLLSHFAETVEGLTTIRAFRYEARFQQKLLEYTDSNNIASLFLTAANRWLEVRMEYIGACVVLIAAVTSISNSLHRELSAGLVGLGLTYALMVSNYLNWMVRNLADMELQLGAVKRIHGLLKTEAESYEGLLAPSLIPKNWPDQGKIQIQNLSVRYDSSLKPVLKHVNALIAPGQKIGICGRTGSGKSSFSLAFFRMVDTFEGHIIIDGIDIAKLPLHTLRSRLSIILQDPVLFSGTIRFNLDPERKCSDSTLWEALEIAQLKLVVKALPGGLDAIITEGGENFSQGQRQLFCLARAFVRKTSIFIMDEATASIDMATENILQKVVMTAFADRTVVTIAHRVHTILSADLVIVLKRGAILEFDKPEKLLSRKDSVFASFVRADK

[7] = test system: Jurkat T-lymphocyte mitochondria
[8] = test system: isolated rat pancreatic islets
PPARalpha = molecular target: T2, PPARalpha (Homo sapiens, UniProt Q07869)
T2 construct: expressed in transfected cells
T2 sequence (Q07869 whole entry, species assumed): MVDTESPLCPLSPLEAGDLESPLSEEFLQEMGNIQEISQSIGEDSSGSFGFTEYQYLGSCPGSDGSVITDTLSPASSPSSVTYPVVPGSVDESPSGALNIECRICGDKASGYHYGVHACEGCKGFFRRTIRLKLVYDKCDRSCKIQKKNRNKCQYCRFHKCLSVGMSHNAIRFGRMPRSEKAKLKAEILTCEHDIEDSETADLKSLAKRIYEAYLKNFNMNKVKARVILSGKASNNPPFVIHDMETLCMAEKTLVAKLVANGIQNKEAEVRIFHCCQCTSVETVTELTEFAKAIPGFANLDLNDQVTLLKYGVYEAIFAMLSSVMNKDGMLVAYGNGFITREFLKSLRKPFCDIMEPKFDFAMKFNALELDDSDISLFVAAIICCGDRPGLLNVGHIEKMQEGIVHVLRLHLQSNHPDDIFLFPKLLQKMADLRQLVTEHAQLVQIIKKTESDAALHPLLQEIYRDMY

PPARgamma [9] = molecular target: T3, PPARgamma (Homo sapiens, UniProt P37231); set-up: expressed in transfected cells
T3 sequence (P37231 1-505): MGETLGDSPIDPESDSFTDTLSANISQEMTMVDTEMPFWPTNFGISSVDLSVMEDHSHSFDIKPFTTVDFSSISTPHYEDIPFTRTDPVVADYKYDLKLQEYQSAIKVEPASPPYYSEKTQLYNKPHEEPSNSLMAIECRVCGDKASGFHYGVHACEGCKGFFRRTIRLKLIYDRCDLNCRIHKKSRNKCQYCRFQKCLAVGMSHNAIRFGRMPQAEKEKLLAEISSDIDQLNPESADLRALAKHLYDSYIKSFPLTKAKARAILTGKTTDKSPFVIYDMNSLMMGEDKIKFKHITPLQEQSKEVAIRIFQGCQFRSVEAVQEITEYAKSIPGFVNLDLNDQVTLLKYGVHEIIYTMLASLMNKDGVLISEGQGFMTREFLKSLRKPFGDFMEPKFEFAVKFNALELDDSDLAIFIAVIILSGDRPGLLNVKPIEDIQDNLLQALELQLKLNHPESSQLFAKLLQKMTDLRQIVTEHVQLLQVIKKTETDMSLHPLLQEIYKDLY

[10] = test system: porcine carotid artery strips; settings: for change in resting tone: 10 mM KCl
[11] = test system: rat aortic vascular smooth muscle cell; settings: 0.1-10 microM
THP-1 monocytic cells = settings: PMA-stimulated
[12] = test system: human glioblastoma cell lines (A172, U87-MG, M059K, M059J); settings: all cell lines
[13] = test system: human neuroblastoma cells (SK-N-SH and SK-N-MC); settings: for 15-deoxy-PGJ2-induced cell growth inhibition: co-treatment
[14] = test system: hepatic stellate cells (HSC)
[15] = human, in vivo
[16] = test system: human mammary tumour cell lines
PPARgamma [17] = molecular target: T3, PPARgamma; set-up: endogenous in cells; host or cells: human mammary tumour cell lines
[18] = mouse, in vivo

## cyclosporin A
[1]
  translocation of the apoptosis-inducing factor from mitochondria to nuclei: blocked translocation
  MPT and cell death: blocked MPT and cell death

## nobotanin B
[2]
  Cell death: equally reduced

## NC(=O)c1ccccc1 [benzamide]
[2]
  NAD(+) depletion resulting from PARP1 activation: prevented the NAD(+) depletion
  poly(ADP-ribose) accumulation: decrease
  Cell death: markedly reduced

## CCCCCCCC(=O)O [octanoate]
Porcine carotid arteries
  adverse energetic effects of malate-aspartate shuttle inhibition: normalized

## CC(C)(c1ccc(OCC2CO2)cc1)c1ccc(OCC2CO2)cc1 (stereo not shown) [BADGE, bisphenol A diglycidyl ether]
1 mg kg-1 i.v. 30 min prior to agonist
  protective effect of rosiglitazone or 15d-PGJ2 against gut I/R: abolished the protective effect
[3]
  anti-inflammatory effects of rosiglitazone: abolished the anti-inflammatory effects

## CCCC1([C@H](O)C/C=C/[C@H]2[C@H](O)CC(=O)[C@@H]2CCCCCCC(=O)OC)CCC1 [Butaprost]
[4]
  cell growth: increased lung carcinoma cell growth

## CN(C)C(=N)N=C(N)N [metformin]
[5]; 8 mg rosiglitazone or 2 g metformin, 16 weeks
  HbA1c, insulin, and free fatty acid concentrations: similarly decreased
[5]; 2 g metformin, baseline 84+/−4, P<0.05
  Body weight at 16 weeks: 82 ± 4 kg
[5]; 16 weeks
  Serum adiponectin concentrations, increase: remained unchanged
[5]; baseline 15+/−3 rosiglitazone, 13+/−3 metformin
  Liver fat (proton spectroscopy) at 16 weeks: 14+/−3%

## COC(=O)C(C)=O [methyl pyruvate]
Pancreatic beta-cells
  NAD(P)H autofluorescence, ATP production, ATP/ADP ratio: slightly decreased NAD(P)H autofluorescence and did not influence ATP production or the ATP/ADP ratio
  cytosolic free Ca(2+) concentration: increased the cytosolic free Ca(2+) concentration after an initial decrease
  increase in insulin secretion relative to that induced by glucose: 6 fold
Pancreatic beta-cells; 0.5 mM glucose
  electrical activity: elicited electrical activity
Pancreatic beta-cells; 5-20 mM
  beta-cell membrane depolarization: depolarized the beta-cell in a concentration-dependent manner
Pancreatic beta-cells; absence of glucose
  concentration of maximal effect on insulin secretion: 5 mM
Pancreatic beta-cells; absence of glucose, pyruvate 5-20 mM
  insulin secretion: stimulated insulin secretion
Pancreatic beta-cells; islets
  insulin secretion and KATP block: block of KATP
Pancreatic beta-cells; pyruvate 5 mM, MP 5 mM, glucose 20 mM
  ATP/ADP ratio in whole islets: no effect
[6]
  ATP production: higher
K(ATP) channels
  K(ATP) current: inhibited the K(ATP) current
[7]
  cation current across the inner membrane: directly inhibited
[8]
  mitochondrial alkalinization: more marked mitochondrial alkalinization than pyruvate
  mitochondrial metabolism compared with pyruvate: more efficient than pyruvate
[8]; D-glucose 16.7 mM and/or ester 20.0 mM
  insulin release: negative insulinotropic action
[8]; D-glucose 2.8 to 8.3 mM, ester not exceeding 1 0.0 mM
  insulin release: positive insulinotropic action
Pancreatic islets
  NADH and NADPH response: stimulated a robust NADH and NADPH response

## O=C(OC[C@H]1O[C@@H](OC(=O)c2cc(O)c(O)c(OC(=O)c3cc(O)c(O)c(O)c3)c2)[C@H](OC(=O)c2cc(O)c(O)c(OC(=O)c3cc(O)c(O)c(O)c3)c2)[C@@H](OC(=O)c2cc(O)c(O)c(OC(=O)c3cc(O)c(O)c(O)c3)c2)[C@@H]1OC(=O)c1cc(O)c(O)c(OC(=O)c2cc(O)c(O)c(O)c2)c1)c1cc(O)c(O)c(OC(=O)c2cc(O)c(O)c(O)c2)c1 [gallotannin]
[2]
  NAD(+) depletion resulting from PARP1 activation: prevented the NAD(+) depletion
  poly(ADP-ribose) accumulation: increase
  Cell death: equally reduced

## CC(C)=CCC(=O)C1(O)C(O)=C(C(=O)C(C)C)C(=O)C1CC=C(C)C (stereo not shown) [isocohumulone]
PPARalpha
  activation of PPARalpha: activate
PPARgamma [9]
  activation of PPARgamma: activate

## CC(O)C(=O)O (stereo not shown) [lactate]
[10]; 10 mm in PSS
  increase of O2 consumption: without effect

## CN(CCOc1ccc(C[C@H](Nc2ccccc2C(=O)c2ccccc2)C(=O)O)cc1)c1ccccn1 [GW1929]
[4]
  EP2 mRNA and protein levels: significant decrease
  cell growth: inhibition of cell growth

## O=C(O)c1c(Sc2ccccc2)c2cc(Cl)ccc2n1Cc1ccc(Cl)cc1 [nTZDpa]
Human coronary VSMCs
  apoptosis: induce caspase-mediated apoptosis
[11]
  vascular smooth muscle cell growth: inhibited vascular smooth muscle cell growth

## CCCCC/C=C/C=C1/C(=O)C=C[C@@H]1C/C=C\CCCC(=O)O [PGJ2, 15-deoxy-Delta12,14-prostaglandin J2]
THP-1 monocytic cells
  IL-1, IL-6 and TNFalpha secretion: inhibitory effect
  IL-1Ra production: increasing IL-1Ra production
[12]
  proliferation: inhibited proliferation
[4]
  EP2 mRNA and protein levels: significant decrease
  cell growth: inhibition of cell growth
[13]
  induction of apoptosis: increased the induction of apoptosis in a dose-dependent manner
[13]; both cells
  cell growth: inhibited cell growth in time- and dose-dependent manners
0.3 mg kg-1 i.v.
  nitrotyrosine formation and ICAM-1 upregulation during reperfusion: markedly reduced
0.3 mg kg-1 i.v. 30 min prior to ischaemia
  fall in mean arterial blood pressure, mortality rate, MPO activity, MDA levels, TNF-alpha and IL-1 beta, histological gut injury: significantly reduced
[14]
  alpha1 (I) procollagen promoter activity: inhibited
[14]; 10 microm 15dPGJ(2), 0.1 approximately 10 microm BRL49653, WY14643 >100 microm, not <10 microm
  HSC DNA and collagen synthesis: inhibited DNA and collagen synthesis without affecting the cell viability

## COc1cccc(-c2cc(=O)c3ccccc3o2)c1N [PD98059, 2′-amino-3′-methoxyflavone]
[13]
  15-deoxy-PGJ2-induced cell growth inhibition: significantly prevented

## NC(=O)c1ccc[n+]([C@@H]2O[C@H](COP(=O)([O-])OP(=O)(O)OC[C@H]3O[C@@H](n4cnc5c(N)ncnc54)[C@H](O)[C@@H]3O)[C@@H](O)[C@H]2O)c1 [NAD(+)]
[1]
  translocation of the apoptosis-inducing factor from mitochondria to nuclei: blocked translocation
  MPT and cell death: blocked both MPT and cell death
[1]; 10 mM extracellular NAD(+) after MNNG exposure
  glycolytic capacity and cell death: completely restored glycolytic capacity and prevented cell death

## CN(CCOc1ccc(CC2SC(=O)NC2=O)cc1)c1ccccn1 (stereo not shown) [rosiglitazone]
[15]
  blood counts, viral loads, CD4 counts: no significant changes

## O=C(Nc1ccccc1)c1cc([N+](=O)[O-])ccc1Cl [GW9662, 2-chloro-5-nitro-N-henylbenzamide]
[16]
  growth of tumour cell lines: inhibited growth
[16]; combination with rosiglitazone
  rosiglitazone-induced growth inhibition: enhanced rather than reversed
[13]
  15-deoxy-PGJ2-induced cell growth inhibition: reversed
[14]; concomitant treatment
  abrogation of suppression of HSC collagen by 15dPGJ(2): 70%
PPARgamma [17]
  activation of PPARgamma: prevented activation of PPARgamma

## CC(C)CC[C@@H](O)[C@@H](C)[C@H]1CC[C@H]2[C@@H]3CC=C4C[C@@H](O)CC[C@]4(C)[C@H]3CC[C@]12C [22(R)-hydroxycholesterol]
LXR
  suppressive effects of LXRs on PPARa-induced PPRE-luciferase activity: dose dependently enhanced

## [Cl-].[K+] [KCl]
[10]; glucose-PSS
  change in resting tone: -0.8 ± 0.8 g
[10]; lactate-PSS
  change in resting tone: 1.5 ± 0.7 g
[10]; pyruvate-PSS
  change in resting tone: -2.1 ± 0.8 g

## O=S(=O)(c1ccccc1)N(CC(F)(F)F)c1ccc(C(O)(C(F)(F)F)C(F)(F)F)cc1 [T0901317]
LXR
  suppressive effects of LXRs on PPARa-induced PPRE-luciferase activity: dose dependently enhanced

## CC(C)=CCC(=O)C1(O)C(O)=C(C(=O)CC(C)C)C(=O)C1CC=C(C)C (stereo not shown) [isohumulone]
PPARalpha
  activation of PPARalpha: activate
[18]
  body weight increase versus control group: did not result in significant body weight gain
  reduced plasma free fatty acid level: 73.1%
  reduced plasma glucose level: 65.3%
  reduced plasma triglyceride level: 62.6%
PPARgamma [9]
  activation of PPARgamma: activate
